Patent US8486933B2, “Pyrimidine inhibitors of kinase activity” (AbbVie Inc., priority 2009, dated 2013)
pIC50: −log10 of the molar value.

Molecular target: T1, human IGF-1R (Homo sapiens, UniProt P08069)
T1 construct: human IGF-1R, amino acids 954-1367 expressed by baculovirus in Sf21 cells; GST (C); purchased Cell Signaling Technology; host or cells: baculovirus in Sf21 cells
Assay: IGF-1R homogenous time-resolved fluorescence (HTRF) in vitro kinase assay
Type: biochemical
Conditions: recombinant GST-tagged human IGF-1R aa 954-1367; ATP 50 μM; 60 minutes at room temperature
Method: IGF-1R kinase activity was assayed by a homogenous time-resolved fluorescence (HTRF) in vitro kinase assay (Mathis, G., HTRF(R) Technology. J Biomol Screen, 1999. 4(6): p. 309-314). Specifically, 10 μL C-terminal GST-tagged, recombinant, human IGF-1R, amino acids 954-1367 expressed by baculovirus in Sf21 cells (Cell Singaling Technology) was mixed with 10 μL inhibitor (various concentrations, 2% final DMSO) and 10 μL of ATP (50 μM final concentration) in reaction buffer (50 mM HEPES, pH 7.5, 10 mM MgCl2, 2 mM MnCl2, 0.1% BSA and 1 mM DTT, 40 μL final volume). The reaction was initiated by addition of 10 μL of biotinylated peptide substrate (Biotin-Ahx-[…], 0.5 μM final concentration) in a black 384-well plate (Packard). […] The quenched reaction was allowed to stand at room temperature for 1 hour and then read in a time-resolved fluorescence detector (Envision, Perkin Elmer) at 615 nm and 665 nm simultaneously. The ratio between the signal of 615 nm and 665 nm was used in the calculation of the IC50.

T1 sequence (P08069 954-1367): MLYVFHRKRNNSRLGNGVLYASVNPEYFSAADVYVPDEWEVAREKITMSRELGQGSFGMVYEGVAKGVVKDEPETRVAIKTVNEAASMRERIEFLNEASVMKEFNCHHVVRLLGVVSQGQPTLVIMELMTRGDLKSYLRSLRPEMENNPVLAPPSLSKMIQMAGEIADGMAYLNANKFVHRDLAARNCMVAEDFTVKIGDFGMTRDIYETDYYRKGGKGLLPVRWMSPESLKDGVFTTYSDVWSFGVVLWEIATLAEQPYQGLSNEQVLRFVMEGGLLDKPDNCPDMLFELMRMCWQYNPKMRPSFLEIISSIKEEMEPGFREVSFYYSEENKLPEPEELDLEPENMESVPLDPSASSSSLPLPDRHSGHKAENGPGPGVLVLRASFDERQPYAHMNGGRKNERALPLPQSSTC

**Q.** With `CCN1CCN(c2ccc(Nc3ncc(Br)c(Nc4ccc5[nH]c(C(F)(F)F)nc5c4)n3)cc2)CC1` [Example 1, 5-bromo-N^2-[4-(4-ethylpiperazin-1-yl)phenyl]-N^4-[2-(trifluoromethyl)-1H-benzimidazol-5-yl]pyrimidine-2,4-diamine] as the compound, how does the pIC50 read?
**A.** < 6.30

**Q.** `CCN1CCN(c2ccc(Nc3ncc(Br)c(Nc4ccc5[nH]c(Cc6ccccc6)nc5c4)n3)cc2)CC1` [Example 2, N^4-(2-benzyl-1H-benzimidazol-5-yl)-5-bromo-N^2-[4-(4-ethylpiperazin-1-yl)phenyl]pyrimidine-2,4-diamine] was tested. Which pIC50 did it give?
**A.** < 6.30

**Q.** How did the pIC50 turn out when `CCN1CCN(c2ccc(Nc3ncc(Br)c(Nc4ccc5[nH]c(CCc6ccccc6)nc5c4)n3)cc2)CC1` [Example 3, 5-bromo-N^2-[4-(4-ethylpiperazin-1-yl)phenyl]-N^4-[2-(2-phenylethyl)-1H-benzimidazol-5-yl]pyrimidine-2,4-diamine] was run?
**A.** < 6.30

**Q.** How did the pIC50 turn out when `CCN1CCN(c2ccc(Nc3ncc(Br)c(Nc4ccc5c(c4)ncn5Cc4ccccc4)n3)cc2)CC1` [Example 4, N^4-(1-benzyl-1H-benzimidazol-5-yl)-5-bromo-N^2-[4-(4-ethylpiperazin-1-yl)phenyl]pyrimidine-2,4-diamine] was run?
**A.** 6.30 to 7.00

**Q.** With `CCN1CCN(c2ccc(Nc3ncc(Br)c(Nc4ccc5ncn(Cc6ccccc6)c5c4)n3)cc2)CC1` [Example 5, N^4-(1-benzyl-1H-benzimidazol-6-yl)-5-bromo-N^2-[4-(4-ethylpiperazin-1-yl)phenyl]pyrimidine-2,4-diamine] as the compound, how does the pIC50 read?
**A.** < 6.30

**Q.** `CCN1CCN(c2ccc(Nc3ncc(Br)c(Nc4cccc5[nH]c(C)nc45)n3)cc2)CC1` [Example 6, 5-bromo-N^2-[4-(4-ethylpiperazin-1-yl)phenyl]-N^4-(2-methyl-1H-benzimidazol-4-yl)pyrimidine-2,4-diamine] was tested. Which pIC50 did it give?
**A.** < 6.30

**Q.** How did the pIC50 turn out when `CCN1CCN(c2ccc(Nc3ncc(Br)c(Nc4ccc5[nH]ncc5c4)n3)cc2)CC1` [Example 7, 5-bromo-N^2-[4-(4-ethylpiperazin-1-yl)phenyl]-N^4-1H-indazol-5-ylpyrimidine-2,4-diamine] was run?
**A.** 7.00 to 7.29

**Q.** How did the pIC50 turn out when `CCN1CCN(c2ccc(Nc3ncc(C)c(Nc4ccc5[nH]ncc5c4)n3)cc2)CC1` [Example 9, N^2-[4-(4-ethylpiperazin-1-yl)phenyl]-N^4-1H-indazol-5-yl-5-methylpyrimidine-2,4-diamine] was run?
**A.** < 6.30

**Q.** How did the pIC50 turn out when `CCN1CCN(c2ccc(Nc3ncc(C(F)(F)F)c(Nc4ccc5[nH]ncc5c4)n3)cc2)CC1` [Example 11, N^2-[4-(4-ethylpiperazin-1-yl)phenyl]-N^4-1H-indazol-5-yl-5-(trifluoromethyl)pyrimidine-2,4-diamine] was run?
**A.** 6.30 to 7.00

**Q.** How did the pIC50 turn out when `COc1cc(N2CCC(N(C)C)CC2)ccc1Nc1ncc(Br)c(Nc2ccc3[nH]ncc3c2)n1` [Example 12, 5-bromo-N^2-{4-[4-(dimethylamino)piperidin-1-yl]-2-methoxyphenyl}-N^4-1H-indazol-5-ylpyrimidine-2,4-diamine] was run?
**A.** 7.30 to 8.00

**Q.** How did the pIC50 turn out when `COc1cc(N2CCC(N3CCN(C)CC3)CC2)ccc1Nc1ncc(Br)c(Nc2ccc3[nH]ncc3c2)n1` [Example 13, 5-bromo-N^4-1H-indazol-5-yl-N^2-{2-methoxy-4-[4-(4-methylpiperazin-1-yl)piperidin-1-yl]phenyl}pyrimidine-2,4-diamine] was run?
**A.** 7.30 to 8.00

**Q.** With `CCN1CCN(c2ccc(Nc3ncc(Br)c(Nc4ccc5scnc5c4)n3)cc2)CC1` [Example 14, N^4-1,3-benzothiazol-5-yl-5-bromo-N^2-[4-(4-ethylpiperazin-1-yl)phenyl]pyrimidine-2,4-diamine] as the compound, how does the pIC50 read?
**A.** 6.30 to 7.00

**Q.** `CCN1CCN(c2ccc(Nc3ncc(Br)c(Nc4cccc5oc(C)nc45)n3)cc2)CC1` [Example 15, 5-bromo-N^2-[4-(4-ethylpiperazin-1-yl)phenyl]-N^4-(2-methyl-1,3-benzoxazol-4-yl)pyrimidine-2,4-diamine] was tested. Which pIC50 did it give?
**A.** 6.30 to 7.00

**Q.** With `COc1cc(N2CCC(N(C)C)CC2)ccc1Nc1ncc(Br)c(Nc2cccc3[nH]c(C)nc23)n1` [Example 16, 5-bromo-N^2-{4-[4-(dimethylamino)piperidin-1-yl]-2-methoxyphenyl}-N^4-(2-methyl-1H-benzimidazol-4-yl)pyrimidine-2,4-diamine] as the compound, how does the pIC50 read?
**A.** 6.30 to 7.00

**Q.** With `COc1cc(N2CCC(N(C)C)CC2)ccc1Nc1ncc(Cl)c(Nc2cccc3[nH]c(C)nc23)n1` [Example 17, 5-chloro-N^2-{4-[4-(dimethylamino)piperidin-1-yl]-2-methoxyphenyl}-N^4-(2-methyl-1H-benzimidazol-4-yl)pyrimidine-2,4-diamine] as the compound, how does the pIC50 read?
**A.** < 6.30

**Q.** How did the pIC50 turn out when `COc1cc(N2CCC(N(C)C)CC2)ccc1Nc1ncc(Cl)c(Nc2ccc3c(cnn3C)c2)n1` [Example 18, 5-chloro-N^2-{4-[4-(dimethylamino)piperidin-1-yl]-2-methoxyphenyl}-N^4-(1-methyl-1H-indazol-5-yl)pyrimidine-2,4-diamine] was run?
**A.** 6.30 to 7.00

**Q.** `COc1cc(N2CCC(N(C)C)CC2)ccc1Nc1ncc(Br)c(Nc2ccc3c(cnn3C)c2)n1` [Example 19, 5-bromo-N^2-{4-[4-(dimethylamino)piperidin-1-yl]-2-methoxyphenyl}-N^4-(1-methyl-1H-indazol-5-yl)pyrimidine-2,4-diamine] was tested. Which pIC50 did it give?
**A.** 7.00 to 7.29

**Q.** With `COc1cc(N2CCC(N(C)C)CC2)ccc1Nc1ncc(Br)c(Nc2cc3cn[nH]c3cc2Cl)n1` [Example 20, 5-bromo-N^4-(6-chloro-1H-indazol-5-yl)-N^2-{4-[4-(dimethylamino)piperidin-1-yl]-2-methoxyphenyl}pyrimidine-2,4-diamine] as the compound, how does the pIC50 read?
**A.** 7.30 to 8.00

**Q.** How did the pIC50 turn out when `COc1cc(N2CCC(N(C)C)CC2)ccc1Nc1ncc(Br)c(Nc2cc3cn[nH]c3cc2C)n1` [Example 21, 5-bromo-N^2-{4-[4-(dimethylamino)piperidin-1-yl]-2-methoxyphenyl}-N^4-(6-methyl-1H-indazol-5-yl)pyrimidine-2,4-diamine] was run?
**A.** 6.30 to 7.00

**Q.** How did the pIC50 turn out when `COc1cc(N2CCC(N(C)C)CC2)ccc1Nc1ncc(Br)c(Nc2ccc3sc(C)nc3c2)n1` [Example 22, 5-bromo-N^2-{4-[4-(dimethylamino)piperidin-1-yl]-2-methoxyphenyl}-N^4-(2-methyl-1,3-benzothiazol-5-yl)pyrimidine-2,4-diamine] was run?
**A.** 7.00 to 7.29

**Q.** `COc1cc(N2CCC(N(C)C)CC2)ccc1Nc1ncc(Br)c(Nc2cc3cn[nH]c3cc2S(=O)(=O)C(C)C)n1` [Example 23, 5-bromo-N^2-{4-[4-(dimethylamino)piperidin-1-yl]-2-methoxyphenyl}-N^4-[6-(isopropylsulfonyl)-1H-indazol-5-yl]pyrimidine-2,4-diamine] was tested. Which pIC50 did it give?
**A.** > 8.00

**Q.** With `COc1cc(N2CCC(N(C)C)CC2)ccc1Nc1ncc(Br)c(Nc2cc3cn[nH]c3cc2SC(C)C)n1` [Example 24, 5-bromo-N^2-{4-[4-(dimethylamino)piperidin-1-yl]-2-methoxyphenyl}-N^4-[6-(isopropylthio)-1H-indazol-5-yl]pyrimidine-2,4-diamine] as the compound, how does the pIC50 read?
**A.** 7.30 to 8.00

**Q.** How did the pIC50 turn out when `COc1cc(N2CCC(N(C)C)CC2)ccc1Nc1ncc(Cl)c(Nc2ccc3oc(C)nc3c2)n1` [Example 25, 5-chloro-N^2-{4-[4-(dimethylamino)piperidin-1-yl]-2-methoxyphenyl}-N^4-(2-methyl-1,3-benzoxazol-5-yl)pyrimidine-2,4-diamine] was run?
**A.** < 6.30

**Q.** With `COc1cc(N2CCC(N(C)C)CC2)ccc1Nc1ncc(Cl)c(Nc2cc3cn[nH]c3cc2S(=O)(=O)C(C)C)n1` [Example 26, 5-chloro-N^2-{4-[4-(dimethylamino)piperidin-1-yl]-2-methoxyphenyl}-N^4-[6-(isopropylsulfonyl)-1H-indazol-5-yl]pyrimidine-2,4-diamine] as the compound, how does the pIC50 read?
**A.** 7.30 to 8.00

**Q.** How did the pIC50 turn out when `COc1cc(N2CCC(N(C)C)CC2)ccc1Nc1ncc(Br)c(Nc2cc3cnn(C)c3cc2S(=O)(=O)C(C)C)n1` [Example 27, 5-bromo-N^2-{4-[4-(dimethylamino)piperidin-1-yl]-2-methoxyphenyl}-N^4-[6-(isopropylsulfonyl)-1-methyl-1H-indazol-5-yl]pyrimidine-2,4-diamine] was run?
**A.** > 8.00

**Q.** With `COc1cc(N2CCC(N3CCN(C)CC3)CC2)ccc1Nc1ncc(Br)c(Nc2cc3cnn(C)c3cc2S(=O)(=O)C(C)C)n1` [Example 28, 5-bromo-N^4-[6-(isopropylsulfonyl)-1-methyl-1H-indazol-5-yl]-N^2-{2-methoxy-4-[4-(4-methylpiperazin-1-yl)piperidin-1-yl]phenyl}pyrimidine-2,4-diamine] as the compound, how does the pIC50 read?
**A.** > 8.00

**Q.** `COc1cc(N2CCC(N(C)C)CC2)ccc1Nc1ncc(Br)c(Nc2cc3cn(C)nc3cc2S(=O)(=O)C(C)C)n1` [Example 29, 5-bromo-N^2-{4-[4-(dimethylamino)piperidin-1-yl]-2-methoxyphenyl}-N^4-[6-(isopropylsulfonyl)-2-methyl-2H-indazol-5-yl]pyrimidine-2,4-diamine] was tested. Which pIC50 did it give?
**A.** 6.30 to 7.00

**Q.** `CCS(=O)(=O)c1cc2[nH]ncc2cc1Nc1nc(Nc2ccc(N3CCC(N(C)C)CC3)cc2OC)ncc1Br` [Example 30, 5-bromo-N^2-{4-[4-(dimethylamino)piperidin-1-yl]-2-methoxyphenyl}-N^4-[6-(ethylsulfonyl)-1H-indazol-5-yl]pyrimidine-2,4-diamine] was tested. Which pIC50 did it give?
**A.** > 8.00

**Q.** `CCS(=O)(=O)c1cc2[nH]ncc2cc1Nc1nc(Nc2ccc(N3CCC(N(C)C)CC3)cc2)ncc1Br` [Example 31, 5-bromo-N^2-{4-[4-(dimethylamino)piperidin-1-yl]phenyl}-N^4-[6-(ethylsulfonyl)-1H-indazol-5-yl]pyrimidine-2,4-diamine] was tested. Which pIC50 did it give?
**A.** 7.30 to 8.00
